From patent US11517528B2, “Lipid membrane structure for delivery into siRNA cell” (NATIONAL UNIVERSITY CORPORATION HOKKAIDO UNIVERSITY, priority 2017, dated 2022)

Columns and labels:
[1] = tested on: HeLa cells stably expressing dual-luciferase (HeLa-dluc); assay: in vitro knockdown activity, dual-luciferase assay; format: cell-based
Description: Hemolysis activity, in vitro knockdown activity, and in vivo F7 knockdown activity, which are indicators of endosome escape activity, were measured. Regarding the hemolysis activity, mouse erythrocytes and LNPs were mixed in a buffer solution adjusted to pH 6.5, the mixture was incubated at 37° C. for 30 minutes and then centrifuged, and an absorbance of the supernatant at 545 nm was measured. Hemolysis efficiency of each sample was calculated by respectively using a sample to which LNPs were not added and a sample to which Triton X-100 having a final concentration of 0.5% was added, as a negative control and a positive control. Regarding the in vitro knockdown activity, LNPs loaded with siRNA against luciferase were added to HeLa cells stably expressing dual-luciferase (HeLa-dluc) at various concentrations, and knockdown efficiency was calculated 24 hours after the addition by dual-luciferase assay. […] Regarding the in vivo F7 knockdown activity, 0.1 mg siRNA/kg of LNPs loaded with siRNA against F7 were intravenously administered to an ICR mouse (4 weeks old, female), and F7 enzyme activity in plasma was measured 24 hours after the administration. Each activity against pKa was plotted (FIG. 3).
The influence of hydrophobic scaffolds on siRNA introduction activity of small LNPs with an average particle diameter of about 35 nm was examined. […]

[2] = cationic lipid content in liver and spleen by LC/MS; format: in vivo, mouse; conditions: 1 mg siRNA/kg of LNP i.v., ICR mice; until 72 hours
Description: 1 mg siRNA/kg of Each LNP was intravenously administered to ICR mice (4 weeks old, female), the liver and spleen were recovered over time, and each cationic lipid was quantitatively determined by LC/MS.

CCCCC/C=C\C/C=C\CCCCCCCCC(O)(CCCCCCCC/C=C\C/C=C\CCCCC)CCCCOC(=O)C1CCN(C)CC1 [CL15A, (14Z,17Z)-5-Hydroxy-5-((9Z,12Z)-octadeca-9,12-dien-1-yl)tricosa-14,17-dien-1-yl 1-methylpiperidine-4-carboxylate] showed a luciferase knockdown efficiency ([1]; 30 nM siRNA, small LNPs, average particle diameter about 35 nm, HeLa-dluc) of no more than 30%.
In the case of CCCCCCCC/C=C\CCCCCCCC(=O)OCCCCCCC(O)(CCCCCCOC(=O)CCCCCCC/C=C\CCCCCCCC)CCCCOC(=O)C1CCN(C)CC1 [CL15H6, 7-Hydroxy 7-(4-((1-methylpiperidine-4-carbonyl)oxy)butyl)tridecane-1,13-diyl dioleate], the “in vitro knockdown activity” value ([1]; LNPs loaded with siRNA against luciferase, 24 hours, compared with CL15A) is reported as “about three times higher activity than that of CL15A”.
For CCCCC/C=C\C/C=C\CCCCCCCCOC1(OCCCCCCCC/C=C\C/C=C\CCCCC)CCN(C)CC1 [YSK05], the “tissue content of cationic lipid in liver and spleen over time” value [2] was “almost constant until 72 hours after the administration”.
